According to PubChem BioAssay AID256 (DTP/NCI, 2004):
Where “and” joins values, the source holds several entries; their conditions need not be identical. Identical values can stand only once. Toxic doses and inconclusive results are not listed. How the source made its calls: active means survival T/C of 150% or more; inactive means T/C below 125% in these data.

Test system: CD2F1 mice, L1210 leukemia ip, survival T/C
Assay: NCI In Vivo Anticancer Drug Screen. Data for tumor model L1210 Leukemia (intraperitoneal) in CD2F1 (CDF1) mice
Details: endpoint: mean survival time, higher = longer survival
In short: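 Tumor-bearing mice (transplanted tumor) were split into treated and vehicle control groups, and the measured endpoint of each treated group was divided by that of its vehicle controls.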

[1] = dose: 25.0 mg/kg/injection, schedule: Q01DX009 (ip), vehicle: saline
[2] = dose: 50.0 mg/kg/injection, schedule: Q01DX009 (ip), vehicle: saline

Measured: T/C

COc1cc(NCC(C)(O)CN2CCCC(C)C2C)c2ncccc2c1 (stereo not given)
inactive: dose: 3.12 mg/kg/injection, schedule: Q01DX009 (ip), vehicle: saline 101 % of control | dose: 6.25 mg/kg/injection, schedule: Q01DX009 (ip), vehicle: saline 101 % of control | dose: 12.5 mg/kg/injection, schedule: Q01DX009 (ip), vehicle: saline 101 % of control | [1] 103 % of control | [2] 102 % of control

NC(CSC1(c2cccc3ccccc23)c2ccccc2-c2ccccc21)C(=O)O (stereo not given)
inactive: [1] 94 % of control | [2] 96 % of control | dose: 100.0 mg/kg/injection, schedule: Q01DX009 (ip), vehicle: saline 96 % of control | dose: 200.0 mg/kg/injection, schedule: Q01DX009 (ip), vehicle: saline 94 % of control | dose: 400.0 mg/kg/injection, schedule: Q01DX009 (ip), vehicle: saline 94 % of control

Cc1nnc(C(N)=O)c(=O)[nH]1
inactive: dose: 100.0 mg/kg/injection, schedule: Q01DX001 (ip), vehicle: Klucel (hydroxypropylcellulose) (HPC) 102 % of control | dose: 200.0 mg/kg/injection, schedule: Q01DX001 (ip), vehicle: Klucel (hydroxypropylcellulose) (HPC) 98 % of control | dose: 400.0 mg/kg/injection, schedule: Q01DX001 (ip), vehicle: Klucel (hydroxypropylcellulose) (HPC) 100 % of control

CN(C)/N=N/c1[nH]cnc1C(N)=O.[Cl][Cu][Cl]
inactive: dose: 1.56 mg/kg/injection, schedule: Q04DX003 (ip), vehicle: water 97 % of control | dose: 2.0 mg/kg/injection, schedule: Q01DX001 (ip), vehicle: distilled water + Tween-80 96 % of control | dose: 3.13 mg/kg/injection, schedule: Q04DX003 (ip), vehicle: water 106 % of control | dose: 4.0 mg/kg/injection, schedule: Q01DX001 (ip), vehicle: distilled water + Tween-80 94 % of control | dose: 6.25 mg/kg/injection, schedule: Q04DX003 (ip), vehicle: water 95 % of control | dose: 8.0 mg/kg/injection, schedule: Q01DX001 (ip), vehicle: distilled water + Tween-80 99 % of control | dose: 12.5 mg/kg/injection, schedule: Q04DX003 (ip), vehicle: water 94 % of control | dose: 16.0 mg/kg/injection, schedule: Q01DX001 (ip), vehicle: distilled water + Tween-80 88 % of control | dose: 32.0 mg/kg/injection, schedule: Q01DX001 (ip), vehicle: distilled water + Tween-80 92 % of control

COc1ccc(C(=O)CN(C)S(=O)(=O)c2ccc(C)cc2)cc1
inactive: dose: 100.0 mg/kg/injection, schedule: Q04DX002 (ip), vehicle: saline with Tween-80 97 % of control | dose: 200.0 mg/kg/injection, schedule: Q04DX002 (ip), vehicle: saline with Tween-80 97 % of control | dose: 400.0 mg/kg/injection, schedule: Q04DX002 (ip), vehicle: saline with Tween-80 94 % of control

ClC(c1ccccc1)C(Cl)c1ccccc1 (stereo not given)
inactive: dose: 3.13 mg/kg/injection, schedule: Q01DX009 (ip), vehicle: saline with Tween-80 102 % of control | dose: 6.25 mg/kg/injection, schedule: Q01DX009 (ip), vehicle: saline with Tween-80 102 % of control | dose: 12.5 mg/kg/injection, schedule: Q01DX009 (ip), vehicle: saline with Tween-80 91 % of control and 95 % of control

O=C(CC(=O)c1cccc([N+](=O)[O-])c1)Nc1cccc([N+](=O)[O-])c1
inactive: dose: 100.0 mg/kg/injection, schedule: Q01DX009 (ip), vehicle: Klucel (hydroxypropylcellulose) (HPC) 92 % of control | dose: 100.0 mg/kg/injection, schedule: Q04DX003 (ip), vehicle: Klucel (hydroxypropylcellulose) (HPC) 90 % of control | dose: 200.0 mg/kg/injection, schedule: Q01DX009 (ip), vehicle: Klucel (hydroxypropylcellulose) (HPC) 92 % of control | dose: 200.0 mg/kg/injection, schedule: Q04DX003 (ip), vehicle: Klucel (hydroxypropylcellulose) (HPC) 96 % of control | dose: 400.0 mg/kg/injection, schedule: Q01DX009 (ip), vehicle: Klucel (hydroxypropylcellulose) (HPC) 94 % of control | dose: 400.0 mg/kg/injection, schedule: Q04DX003 (ip), vehicle: Klucel (hydroxypropylcellulose) (HPC) 96 % of control

CO[C@]12[C@@H](COC(N)=O)C3=C(C(=O)C(C)=C(NCc4ccco4)C3=O)N1C[C@@H]1[C@H]2N1C (stereo not given in full)
inactive: dose: 1.5 mg/kg/injection, schedule: Q01DX001 (ip), vehicle: distilled water + Tween-80 104 % of control | dose: 3.0 mg/kg/injection, schedule: Q01DX001 (ip), vehicle: distilled water + Tween-80 103 % of control and 104 % of control | dose: 6.0 mg/kg/injection, schedule: Q01DX001 (ip), vehicle: distilled water + Tween-80 110 % of control and 111 % of control | dose: 12.0 mg/kg/injection, schedule: Q01DX001 (ip), vehicle: distilled water + Tween-80 122 % of control | dose: 36.0 mg/kg/injection, schedule: Q01DX001 (ip), vehicle: distilled water + Tween-80 121 % of control

CCCCN=[N+]=[N-]
inactive: dose: 25.0 mg/kg/injection, schedule: Q01DX009 (ip), vehicle: water 94 % of control | dose: 100.0 mg/kg/injection, schedule: Q01DX009 (ip), vehicle: water 96 % of control | dose: 200.0 mg/kg/injection, schedule: Q01DX009 (ip), vehicle: water 91 % of control

CCNC1=CC(=O)CC(C)(C)C1
inactive: dose: 75.0 mg/kg/injection, schedule: Q01DX001 (ip), vehicle: saline 106 % of control | dose: 150.0 mg/kg/injection, schedule: Q01DX001 (ip), vehicle: saline 101 % of control | dose: 300.0 mg/kg/injection, schedule: Q01DX001 (ip), vehicle: saline 109 % of control
